Measurements published in ChEMBL document CHEMBL3585330, “Anticancer activity of koningic acid and semisynthetic derivatives” (Bioorg Med Chem, 2015).
pIC50: −log10 of the molar value. The source made the active and inactive calls. No cut-off for these calls is given here.

Legend:
[1] = test system: A549; experiment: (§1) Antiproliferative activity against human A549 cells assessed as inhibition of cell proliferation incubated for 72 hrs by conventional ATP quantification method; format: functional, cell-based; details: A549, 72 h
[2] = Antiproliferative activity against human NAMALWA cells assessed as inhibition of cell proliferation incubated for 72 hrs by conventional ATP quantification method; format: functional, cell-based; details: NAMALVA
[3] = test system: HCT-116; experiment: (§2) Antiproliferative activity against human HCT116 cells assessed as inhibition of cell proliferation incubated for 72 hrs by conventional ATP quantification method; format: functional, cell-based; details: HCT-116, 72 h
[4] = Antiproliferative activity against human WM266.4 cells assessed as inhibition of cell proliferation incubated for 72 hrs by conventional ATP quantification method; format: functional, cell-based; details: WM 266-4, 72 h
[5] = test system: A-375; experiment: Antiproliferative activity against human A375 cells assessed as inhibition of cell proliferation incubated for 72 hrs by conventional ATP quantification method; format: functional, cell-based; details: A-375, 72 h
[6] = test system: HT-29; experiment: Cytotoxicity against human HT-29 cells incubated for 72 hrs under normoxic conditions by MTS assay; format: functional, cell-based
[7] = test system: Mus musculus; experiment: Toxicity in Swiss mouse xenografted with human A549 cells assessed as induction of body weight loss at 2.5 mg/kg, ip dosed every day for 4 consecutive days during 2 weeks (q1d4 x 2 schedule); format: organism-based; details: in vivo, 336 h
[8] = Antiproliferative activity against human KG1 cells assessed as inhibition of cell proliferation incubated for 72 hrs by conventional ATP quantification method; format: functional, cell-based; details: KG-1, 72 h
[9] = AUClast in mouse at 1.5 mg/kg, ip by tandem HPLC-mass spectrometry; format: ADME, organism-based; design: dose 1.5 mg/kg, route intraperitoneal, time 0 - last; details: in vivo
[10] = test system: A-375; experiment: Toxicity against human A375 cells assessed as reduction in cell viability at 10 uM; format: cell-based; details: a-375, 10 µM
[11] = test system: A-375; experiment: Antiproliferative activity against human A375 cells assessed as inhibition of cell proliferation incubated for 24 hrs by conventional ATP quantification method relative to untreated control; format: functional
[12] = test system: A549; experiment: as §1; format: functional, cell-based; details: A549, 72 h; remark: listed apart in the source
[13] = test system: SK-OV-3; experiment: Antiproliferative activity against human SKOV3 cells assessed as inhibition of cell proliferation incubated for 72 hrs by conventional ATP quantification method; format: functional, cell-based; details: SK-OV-3, 72 h
[14] = Half life in mouse at 1.5 mg/kg, ip by tandem HPLC-mass spectrometry; format: ADME, organism-based; details: in vivo
[15] = Cmax in mouse at 1.5 mg/kg, ip by tandem HPLC-mass spectrometry; format: ADME, organism-based; design: dose 1.5 mg/kg, route intraperitoneal; details: in vivo
[16] = test system: HCT-116; experiment: as §2; format: functional, cell-based; details: HCT-116, 72 h; remark: listed apart in the source
[17] = Oral bioavailability in mouse at 2.5 mg/kg by tandem HPLC-mass spectrometry; format: ADME, organism-based; details: in vivo
[18] = test system: HT-29; experiment: Cytotoxicity against human HT-29 cells incubated for 72 hrs under hypoxic conditions by MTS assay; format: functional, cell-based
[19] = test system: DU-145; experiment: Antiproliferative activity against human DU145 cells assessed as inhibition of cell proliferation incubated for 72 hrs by conventional ATP quantification method; format: functional, cell-based; details: DU-145, 72 h
[20] = test system: OVCAR-3; experiment: Antiproliferative activity against human OVCAR3 cells assessed as inhibition of cell proliferation incubated for 72 hrs by conventional ATP quantification method; format: functional, cell-based; details: OVCAR-3, 72 h
[21] = test system: TK-10; experiment: Antiproliferative activity against human TK10 cells assessed as inhibition of cell proliferation incubated for 72 hrs by conventional ATP quantification method; format: functional, cell-based; details: TK-10, 72 h
[22] = test system: Mus musculus; experiment: Toxicity in Swiss mouse xenografted with human A549 cells assessed as induction of renal toxicity at 2.5 and 5 mg/kg, ip dosed every day for 5 consecutive days during 2 weeks (q1d5 x 2 schedule); format: organism-based; details: in vivo, 336 h
[23] = test system: MDA-MB-231; experiment: Cytotoxicity against human MDA-MB-231 cells incubated for 72 hrs under hypoxic conditions by MTS assay; format: functional, cell-based
[24] = test system: T47D; experiment: Antiproliferative activity against human T47D cells assessed as inhibition of cell proliferation incubated for 72 hrs by conventional ATP quantification method; format: functional, cell-based
[25] = Antiproliferative activity against human COLO205 cells assessed as inhibition of cell proliferation incubated for 72 hrs by conventional ATP quantification method; format: functional, cell-based; details: COLO 205, 72 h
[26] = Half life in mouse at 2.5 mg/kg, po by tandem HPLC-mass spectrometry; format: ADME, organism-based; details: in vivo
[27] = Toxicity in Swiss mouse xenografted with human A549 cells dosed intraperitoneally every day for 5 consecutive days during 2 weeks (q1d5 x 2 schedule); format: organism-based; details: in vivo, ip
[28] = test system: A-375; experiment: Toxicity against human A375 cells assessed as membrane integrity by measuring LDH release incubated for 24 hrs; format: cell-based; details: a-375, 24 h
[29] = Half life in mouse at 0.5 mg/kg, iv by tandem HPLC-mass spectrometry; format: ADME, organism-based; details: in vivo
[30] = Antiproliferative activity against human BxPC3 cells assessed as inhibition of cell proliferation incubated for 72 hrs by conventional ATP quantification method; format: functional, cell-based; details: BXPC-3, 72 h
[31] = test system: HOP-62; experiment: Antiproliferative activity against human HOP62 cells assessed as inhibition of cell proliferation incubated for 72 hrs by conventional ATP quantification method; format: functional, cell-based; details: HOP-62, 72 h
[32] = test system: KM12; experiment: Antiproliferative activity against human KM12 cells assessed as inhibition of cell proliferation incubated for 72 hrs by conventional ATP quantification method; format: functional, cell-based; details: KM12, 72 h
[33] = test system: NCI-H460; experiment: Antiproliferative activity against human NCI-H460 cells assessed as inhibition of cell proliferation incubated for 72 hrs by conventional ATP quantification method; format: functional, cell-based; details: NCI-H460, 72 h
[34] = AUClast in mouse at 0.5 mg/kg, iv by tandem HPLC-mass spectrometry; format: ADME, organism-based; design: dose 0.5 mg/kg, route intravenous, time 0 - last; details: in vivo
[35] = test system: MDA-MB-231; experiment: Cytotoxicity against human MDA-MB-231 cells incubated for 72 hrs under normoxic conditions by MTS assay; format: functional, cell-based
[36] = test system: A549; experiment: Antitumor activity against human A549 cells xenografted in Swiss mouse assessed as reduction of subcutaneous tumor growth at 1 mg/kg, ip dosed every day for 5 consecutive days during 2 weeks (q1d5 x 2 schedule); format: functional, organism-based
[37] = Tmax in mouse at 2.5 mg/kg, po by tandem HPLC-mass spectrometry; format: ADME, organism-based; details: in vivo
[38] = test system: Mus musculus; experiment: Toxicity in Swiss mouse xenografted with human A549 cells assessed as induction of hepatic toxicity at 2.5 and 5 mg/kg, ip dosed every day for 5 consecutive days during 2 weeks (q1d5 x 2 schedule); format: organism-based; details: in vivo, 336 h
[39] = test system: Mus musculus; experiment: Toxicity in Swiss mouse xenografted with human A549 cells assessed as induction of icterus at 2.5 mg/kg, ip dosed every day for 4 consecutive days during 2 weeks (q1d4 x 2 schedule); format: organism-based; details: in vivo, 336 h
[40] = test system: MDA-MB-231; experiment: Antiproliferative activity against human MDA-MB-231 cells assessed as inhibition of cell proliferation incubated for 72 hrs by conventional ATP quantification method; format: functional, cell-based; details: MDA-MB-231, 72 h
[41] = AUClast in mouse at 2.5 mg/kg, po by tandem HPLC-mass spectrometry; format: ADME, organism-based; design: dose 2.5 mg/kg, route oral, time 0 - last; details: in vivo
[42] = test system: A-375; experiment: Antiproliferative activity against human A375 cells assessed as inhibition of cell proliferation incubated for 24 hrs by conventional ATP quantification method; format: functional, cell-based; details: A-375, 24 h
[43] = Cmax in mouse at 2.5 mg/kg, po by tandem HPLC-mass spectrometry; format: ADME, organism-based; design: dose 2.5 mg/kg, route oral; details: in vivo
[44] = test system: A-375; experiment: Inhibition of cell invasion of human A375 cells at 10 uM by Boyden chamber assay; format: functional, cell-based
[45] = test system: PANC-1; experiment: Induction of ROS generation in human PANC1 cells incubated for 1 hr by DCFH-DA dye based assay; format: functional, cell-based
[46] = Initial plasma concentration in mouse at 0.5 mg/kg, iv by tandem HPLC-mass spectrometry; format: ADME, organism-based
[47] = Tmax in mouse at 1.5 mg/kg, ip by tandem HPLC-mass spectrometry; format: ADME, organism-based; details: in vivo
[48] = test system: A549; experiment: Antitumor activity against human A549 cells xenografted in Swiss mouse aggressive tumor model assessed as effect on rate of tumor growth at 1 mg/kg, ip dosed every day for 5 consecutive days during 2 weeks (q1d5 x 2 schedule); format: functional, organism-based
[49] = test system: A549; experiment: Antitumor activity against human A549 cells xenografted in Swiss mouse assessed as effect on median tumor volume at 1 mg/kg, ip dosed every day for 5 consecutive days during 2 weeks (q1d5 x 2 schedule); format: functional, organism-based
[50] = test system: HL-60; experiment: Antiproliferative activity against human HL60 cells assessed as inhibition of cell proliferation incubated for 72 hrs by conventional ATP quantification method; format: functional, cell-based; details: HL-60, 72 h

CNC(=O)C1=C[C@@H]2[C@@H](C(C)C)CC[C@@]3(CO3)[C@H]2C(=O)OC1
pIC50 [1]: 5.26
pIC50 [2]: 5.89
pIC50 [3]: 5.15
pIC50 [4]: 5.23
pIC50 [5]: 5.38

CC(C)[C@H]1CC[C@@]2(CO2)[C@H]2C(=O)OCC(C(=O)OCc3ccc(-c4ccc([N+](=O)[O-])cc4)o3)=C[C@H]12
pIC50 [1]: 6.35
pIC50 [2]: 5.92
pIC50 [3]: 6.21
pIC50 [4]: 5.44
pIC50 [5]: 5.79

CC(C)[C@H]1CC[C@@](O)(CCl)[C@H]2C(=O)OCC(C(=O)OCc3ccc(-c4ccccc4)o3)=C[C@H]12
pIC50 [1]: 5.76
pIC50 [2]: 5.95
pIC50 [3]: 6.21
pIC50 [4]: 5.54
pIC50 [5]: 5.40

CC(C)[C@H]1CC[C@@](O)(CO)[C@H]2C(=O)OCC(C(=O)O)=C[C@H]12
pIC50 [1]: < 4.49
pIC50 [2]: < 4.49
pIC50 [3]: < 4.49
pIC50 [4]: < 4.49
pIC50 [5]: < 4.49

COC(=O)C1=C[C@@H]2[C@@H](C(C)C)CC[C@@]3(CO3)[C@H]2C(=O)OC1
pIC50 [1]: 6.35
pIC50 [2]: 5.76
pIC50 [3]: 5.66
pIC50 [4]: 5.39
pIC50 [5]: 5.39

CC(C)[C@H]1CC[C@@]2(CO2)[C@H]2C(=O)OCC(C(=O)O)=C[C@H]12
Activity [6]: Active
Activity [7]: > 15%
pIC50 [8]: 6.40
AUC(0-t) [9]: 78.7 ng·h/mL
Activity [10]: 81%
pIC50 [1]: 6.34
inhibition (INH) [11]: 90%
pIC50 [12]: 6.00
pIC50 [13]: 6.47
half-life [14]: 6 min
Cmax [15]: 249 ng/mL
pIC50 [16]: 6.03
bioavailability [17]: 17%
Activity [18]: Active
pIC50 [2]: 6.52
pIC50 [19]: 6.05
pIC50 [3]: 6.68
pIC50 [20]: 6.16
pIC50 [21]: 6.18
Activity [22]: Toxic
Activity [23]: Active
pIC50 [24]: 6.68
pIC50 [25]: 6.20
half-life [26]: 30 min
MTD at 336 h [27]: 1 mg/kg
Activity [28]: 8%
half-life [29]: 2.4 min
pIC50 [30]: 6.12
pIC50 [31]: 6.29
pIC50 [32]: 6.39
pIC50 [33]: 6.31
AUC(0-t) [34]: 10.4 ng·h/mL
Activity [35]: Active
Activity [36]: inactive
Tmax [37]: 15 min
Activity [38]: Toxic
Activity [39]: Toxic
pIC50 [40]: 6.35
AUC(0-t) [41]: 8.6 ng·h/mL
pIC50 [42]: 5.90
Cmax [43]: 17 ng/mL
pIC50 [4]: 6.29
inhibition [44]: inactive
Activity [45]: inactive
pIC50 [5]: 5.87
C0 [46]: 180 ng/mL
Tmax [47]: 15 min
Activity [48]: inactive
Activity [49]: inactive
pIC50 [50]: 6.12
